In EPA's ToxValDB 9.5 (doi:10.2903/j.efsa.2010.1624):
Converted amounts (≈) assume the structure as drawn.

What was measured:
[1] = test system: Typhlodromus pyri; settings: not reported
[2] = test system: Anas platyrhynchos; settings: oral, mortality
[3] = test system: Colinus virginianus
[4] = test system: Oncorhynchus mykiss
[5] = test system: Plant; settings: chronic/long-term; development
[6] = test system: Rattus norvegicus
[7] = test system: Mus musculus; settings: acute; oral; mortality
[8] = test system: Daphnia magna; settings: chronic/long-term; duration: 21 days
[9] = test system: Tagia sp.
[10] = test system: Canidae; settings: subchronic; duration: 90 days; oral; Dog Other; histopathology: nonneoplastic
[11] = test system: Apis mellifera; settings: acute; duration: 48 hours; oral; unspecified; mortality
[12] = test system: Folsomia candida; settings: chronic/long-term; reproduction
[13] = reproduction developmental, reproduction

Question: Which LEL ([1]; mortality) does the source give for CC(C)N1C(=O)N(c2ccccc2)CSC1=NC(C)(C)C [Buprofezin] here?
Answer: 3000 g/ha

Question: And the LEL ([1]; reproduction)?
Answer: 3000 g/ha

Question: And the LD50 ([2]; acute, unspecified)?
Answer: > 2000 mg/kg-day

Question: What about the LC50 ([2]; short-term, feed) of the same molecule?
Answer: > 1310 mg/kg-day

Question: What about the LC50 ([3]; acute, oral, diet, mortality) of the same molecule?
Answer: > 1310 mg/kg-day

Question: What about the LD50 ([3]; acute, oral, mortality) of the same molecule?
Answer: > 2000 mg/kg-day

Question: What about the NOEC ([3]; developmental, development) of the same molecule?
Answer: 48 mg/kg-day

Question: What about the NOEC [3, 13] of the same molecule?
Answer: 198 mg/kg-day

Question: And the LC50 ([4]; acute, duration: 96 hours, mortality)?
Answer: 0.33 µg/mL (≈ 1.08 µM)

Question: And the NOEC ([4]; chronic/long-term, growth)?
Answer: 0.052 mg/L

Question: What about the LEL [5] of the same molecule?
Answer: > 100 g/ha

Question: What about the LD50 ([6]; acute, oral, mortality) of the same molecule?
Answer: > 2000 mg/kg-day

Question: What about the NOAEL ([6]; chronic, duration: 2 years, histopathology: nonneoplastic) of the same molecule?
Answer: 1 mg/kg-day

Question: What about the NOAEL ([6]; developmental, development) of the same molecule?
Answer: 50 mg/kg-day

Question: What about the NOEL [6, 13] of the same molecule?
Answer: 66 mg/kg-day

Question: And the LD50 [7]?
Answer: > 2000 mg/kg-day

Question: What about the NOEC [8] of the same molecule?
Answer: 0.08 mg/L

Question: And the LC50 ([9]; acute, duration: 14 days, mortality)?
Answer: > 1000 mg/kg

Question: And the NOEC ([9]; chronic/long-term, reproduction)?
Answer: 500 mg/kg

Question: And the NOAEL [10]?
Answer: 10 mg/kg-day

Question: And the LD50 [11]?
Answer: > 164 µg/piece

Question: And the NOEC [12]?
Answer: 62.5 mg/kg
